Measured values taken from patent publication US20050287565A1, “Methods, compositions and compound assays for inhibiting amyloid-beta protein production” (priority 2004, published 2005).

What was measured:
Type in all cases: cell-based
[1] = system: ADRA1A; assay: ADRA1A agonist and antagonist validation in Hek293 APPwt cells, amyloid beta ELISA
Text: (§1) To identify novel drug targets that change the APP processing, stable cell lines over expressing APP are made by transfecting Hek293 or SH-SY5Y cells with APP770 wt cDNA cloned into pcDNA3.1, followed by selection with G418 for 3 weeks. At this time point colonies are picked and stable clones are expanded and tested for their secreted amyloid-beta peptide levels. The cell lines designated as “Hek293 APPwt” and “SH-SY5Y APPwt” are used in the assays.
Hek293 APPwt Assay: Cells seeded in collagen-coated plates at a cell density of 15000 cells/well (384 well plate) in DMEM (10% FBS), are infected 24 h later with 1 μl or 0.2 μl of adenovirus (corresponding to an average multiplicity of infection (MOI) of 120 and 24 respectively). The following day, the virus is washed away and DMEM (25 mM Hepes; 10% FBS) is added to the cells. Amyloid-beta peptides are allowed to accumulate during 24 h.
(§2) ELISA: The ELISA plate is prepared by coating with a capture antibody (JRF/cAbeta42/26) (the antibody recognizes a specific epitope on the C-terminus of Abeta 1-42; obtained from M Mercken, Johnson and Johnson Pharmaceutical Research and Development, B-2340 Beerse, Belgium) overnight in buffer 42 (Table 2) at a concentration of 2.5 μg/ml. The excess capture antibody is washed away the next morning with PBS and the ELISA plate is then blocked overnight with casein buffer (see Table 2) at 4° C. Upon removal of the blocking buffer, 30 μl of the sample is transferred to the ELISA plate and incubated overnight at 4° C. After extensive washing with PBS-Tween20 and PBS, 30 μl of the horseradish peroxidase (HRP) labeled detection antibody (Peroxidase Labeling Kit, Roche), JRF/AbetaN/25-HRP (obtained from M Mercken, Johnson and Johnson Pharmaceutical Research and Development, B-2340 Beerse, Belgium) is diluted 1/5000 in buffer C (see Table 2) and added to the wells for another 2 h. Following the removal of excess detection antibody by a wash with PBS-Tween20 and PBS, HRP activity is detected via addition of luminol substrate (Roche), which is converted into a chemiluminescent signal by the HRP enzyme.
In addition, for the SH-SY5Y APPwt assay, the samples are also analyzed in an amyloid beta x-42 ELISA. This ELISA detects all amyloid beta peptide species ending at position 42, comprising 1-42, 11-42 and 17-42 (p3), which originate respectively from BACE activity at position 1 and 11, and alpha secretase activity at position 17. Thus, in addition to the amyloidogenic pathway, the non-amyloidogenic pathway is also monitored. The protocol for the Abeta x-42 ELISA is identical to the protocol for the Abeta 1-42 ELISA, except that a HRP labeled 4G8 antibody (Signet; the antibody recognizes a specific epitope in the center of the Abeta peptides) is used as detection antibody. […]

[2] = system: ADRA1A; assay: ADRA1A agonist and antagonist validation in SH-SY5Y APPwt cells, amyloid beta ELISA
Procedure: as §1
SH-SY5Y APPwt Assay: Cells are seeded in collagen-coated plates at a cell density of 15000 cells/well (384 well plate) in Dulbecco's MEM with Glutamax I+15% FBS HI+non-essential amino acids+Geneticin 500 μg/ml. The cells are differentiated towards the neuronal phenotype by adding 9-cis retinoic acid to a final concentration of 1 μM on day 1, day 3, day 5 and day 8. On day 9, the cells are infected with 1 μl of adenovirus (corresponding to an average multiplicity of infection (MOI) of 120 respectively). The following day, the virus is washed away and DMEM 25 mM Hepes 10% FBS is added to the cells. Amyloid beta peptides are allowed to accumulate for 24 h.
as §2
In addition, for the SH-SY5Y APPwt assay, the samples are also analyzed in an amyloid beta x-42 ELISA. This ELISA detects all amyloid beta peptide species ending at position 42, comprising 1-42, 11-42 and 17-42 (p3), which originate respectively from BACE activity at position 1 and 11, and alpha secretase activity at position 17. Thus, in addition to the amyloidogenic pathway, the non-amyloidogenic pathway is also monitored. […]

[3] = molecular target: TACR1 (Homo sapiens, UniProt P25103); assay: TACR1 agonist and antagonist validation in Hek293 APPwt cells, amyloid beta ELISA; conditions: Hek293 APPwt cells infected with Ad5/TACR1_v1
TACR1, sequence (P25103 whole entry): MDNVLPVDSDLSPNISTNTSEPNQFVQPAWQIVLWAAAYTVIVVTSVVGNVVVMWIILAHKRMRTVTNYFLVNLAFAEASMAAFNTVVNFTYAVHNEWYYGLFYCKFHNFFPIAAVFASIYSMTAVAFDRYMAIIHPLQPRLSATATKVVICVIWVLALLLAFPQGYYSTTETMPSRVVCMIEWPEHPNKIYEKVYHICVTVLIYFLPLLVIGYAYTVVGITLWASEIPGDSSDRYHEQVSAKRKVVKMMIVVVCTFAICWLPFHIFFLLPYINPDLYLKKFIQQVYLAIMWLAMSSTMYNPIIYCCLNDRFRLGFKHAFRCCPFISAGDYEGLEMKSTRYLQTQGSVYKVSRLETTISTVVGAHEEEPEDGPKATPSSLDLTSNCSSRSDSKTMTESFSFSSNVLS
Procedure: ELISA: The ELISA plate is prepared by coating with a capture antibody (JRF/cAbeta42/26) (the antibody recognizes a specific epitope on the C-terminus of Abeta 1-42; obtained from M Mercken, Johnson and Johnson Pharmaceutical Research and Development, B-2340 Beerse, Belgium) overnight in buffer 42 (Table 2) at a concentration of 2.5 μg/ml. The excess capture antibody is washed away the next morning with PBS and the ELISA plate is then blocked overnight with casein buffer (see Table 2) at 4° C. Upon removal of the blocking buffer, 30 μl of the sample is transferred to the ELISA plate and incubated overnight at 4° C. […]
In addition, for the SH-SY5Y APPwt assay, the samples are also analyzed in an amyloid beta x-42 ELISA. […] Thus, in addition to the amyloidogenic pathway, the non-amyloidogenic pathway is also monitored. […]

[4] = Hek293 APPwt cells infected with Ad5/ADRA1A_v1, increasing amounts of agonist, 24 h, concentration dependent
[5] = SH-SY5Y APPwt cells infected with Ad5/ADRA1A_v1, increasing amounts of agonist, 24 h, concentration dependent

CC(C)(Cc1c[nH]c2ccc(Cl)cc12)NCCOc1ccccc1OCC1CC1.Cl [RS-17053 hydrochloride]
amount of amyloid beta x-42 secreted in the medium ([1]; Hek293 APPwt cells infected with Ad5/ADRA1A_v1, A61603 plus fixed 0.1 and 1 μM antagonist, 24 h, concentration dependent): reduced
observed EC50 values (agonist A61603) with increasing concentration of the antagonist ([1]; Hek293 APPwt cells, amyloid beta x-42 ELISA, 0.1 and 1 μM antagonist): increased
amount of amyloid beta 1-42 secreted in the medium ([2]; SH-SY5Y APPwt cells infected with Ad5/ADRA1A_v1, A61603 plus fixed 0.1 and 1 μM antagonist, 24 h, concentration dependent): reduced
observed EC50 values (agonist A61603) with increasing concentration of the antagonist ([2]; SH-SY5Y APPwt cells, amyloid beta 1-42 ELISA, 0.1 and 1 μM antagonist): increased

Br.CS(=O)(=O)Nc1c(O)ccc2c1CCCC2C1=NCCN1 (stereo not shown) [A61603]
amount of amyloid beta 1-42 secreted in the medium [1, 4]: decreased
amount of amyloid beta x-42 secreted in the medium [1, 4]: increased
amount of amyloid beta 1-42 secreted in the medium [2, 5]: increased
amount of amyloid beta x-42 secreted in the medium [2, 5]: increased

Cl.FC(F)(F)c1cc(CO[C@H]2CCCN[C@H]2c2ccccc2)cc(C(F)(F)F)c1 [L-733,060 hydrochloride]
observed Substance P EC50 values with increasing concentration of the antagonist ([3]; amyloid beta x-42 ELISA, 0.1, 1 and 10 μM antagonist): increased
amount of amyloid beta x-42 secreted in the medium ([3]; substance P plus fixed 0.1, 1 and 10 μM antagonist, 24 h, concentration dependent): reduces
